Results published in ChEMBL document CHEMBL4219187, “A new target for Alzheimer's disease: A small molecule SERCA activator is neuroprotective in vitro and improves memory and cognition in APP/PS1 mice” (Bioorg Med Chem Lett, 2018).
The source made the active and inactive calls. No cut-off for these calls is given here.

Tests used:
[1] = Half life in mouse hepatocytes; assay type: ADME, cell-based, Hepatocyte
[2] = Half life in human plasma; assay type: ADME, cell-free
Mus musculus [3] = test: Cognition enhancement activity in APPSWE/PSEN1dE9 double-transgenic mouse model of Alzheimer's disease assessed as decrease in total swim distance for hidden platform at 10 mg/kg, ip administered daily for 5 days per week for 4 weeks by Morris water maze test; assay type: functional, organism-based
[4] = Half life in human hepatocytes; assay type: ADME, cell-based, Hepatocyte
[5] = Half life in mouse microsomes; assay type: ADME, Microsome
[6] = Oral bioavailability in mouse at 50 mg/kg; assay type: ADME, organism-based; details: in vivo
[7] = Half life in human microsomes; assay type: ADME, Microsome
HeLa = test: Activation of SERCA in human HeLa cells assessed as protection against thapsigargin induced depletion of ER calcium stores at 10 uM up to 150 secs by cameleon plasmid-based fluorescence assay; assay type: cell-based
[8] = Half life in mouse plasma; assay type: ADME, cell-free
Mus musculus [9] = test: Toxicity in mouse at 50 mg/kg, po; assay type: organism-based; details: in vivo
Rattus norvegicus = organism: Rattus norvegicus; test: Cytoprotection against thapsigargin induced cell death in rat CSM14.1 cells assessed as increase in cell viability preincubated for 2 hrs followed by thapsigargin induction measured after 20 hrs by ATPlite assay; assay type: functional, cell-based
[10] = Ratio of drug level in brain to plasma in mouse measured at 1 hr post dose; assay type: ADME, cell-free; details: brain and plasma, read-out: BPR
[11] = Inhibition of CYP450 (unknown origin) up to 5 uM; assay type: ADME; details: human
[12] = target: Voltage-gated inwardly rectifying potassium channel KCNH2 (Homo sapiens, UniProt Q12809); test: Inhibition of human ERG up to 10 uM
Voltage-gated inwardly rectifying potassium channel KCNH2, sequence (Q12809 whole entry): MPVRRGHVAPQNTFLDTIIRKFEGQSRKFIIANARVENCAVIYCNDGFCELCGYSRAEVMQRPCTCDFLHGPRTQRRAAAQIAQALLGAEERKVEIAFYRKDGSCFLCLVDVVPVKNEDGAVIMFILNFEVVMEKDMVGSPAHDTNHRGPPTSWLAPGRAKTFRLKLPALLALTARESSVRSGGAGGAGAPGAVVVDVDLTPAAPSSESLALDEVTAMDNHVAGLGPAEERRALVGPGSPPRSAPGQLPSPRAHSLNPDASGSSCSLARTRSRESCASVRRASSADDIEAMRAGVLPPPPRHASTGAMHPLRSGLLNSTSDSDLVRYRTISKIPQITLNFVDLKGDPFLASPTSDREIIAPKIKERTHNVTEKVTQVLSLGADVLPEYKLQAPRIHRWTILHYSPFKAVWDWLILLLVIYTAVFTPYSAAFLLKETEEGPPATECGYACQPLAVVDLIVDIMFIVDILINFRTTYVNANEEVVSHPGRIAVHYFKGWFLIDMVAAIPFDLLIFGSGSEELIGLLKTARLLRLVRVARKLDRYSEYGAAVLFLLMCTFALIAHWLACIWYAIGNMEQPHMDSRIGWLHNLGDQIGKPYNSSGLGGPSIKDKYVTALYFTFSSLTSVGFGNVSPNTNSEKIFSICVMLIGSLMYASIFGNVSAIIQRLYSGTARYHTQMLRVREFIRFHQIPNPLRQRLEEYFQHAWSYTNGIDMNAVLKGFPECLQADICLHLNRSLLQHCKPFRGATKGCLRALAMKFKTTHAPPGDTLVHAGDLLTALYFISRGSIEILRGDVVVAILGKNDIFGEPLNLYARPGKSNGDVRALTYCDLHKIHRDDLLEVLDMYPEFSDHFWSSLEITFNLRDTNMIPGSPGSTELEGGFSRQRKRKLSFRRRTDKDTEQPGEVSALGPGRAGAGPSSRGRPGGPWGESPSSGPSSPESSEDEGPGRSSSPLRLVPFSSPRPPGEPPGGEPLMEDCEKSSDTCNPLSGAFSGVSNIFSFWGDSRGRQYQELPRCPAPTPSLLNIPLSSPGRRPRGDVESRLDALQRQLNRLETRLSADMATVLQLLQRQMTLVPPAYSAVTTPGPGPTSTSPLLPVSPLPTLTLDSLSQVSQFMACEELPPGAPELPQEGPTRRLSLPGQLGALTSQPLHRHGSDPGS

Mus musculus [13] = test: Antidepressant activity in APPSWE/PSEN1dE9 double-transgenic mouse model of Alzheimer's disease assessed as reduction in immobility time at 10 mg/kg, ip administered daily for 5 days per week for 4 weeks by tail suspension test; assay type: functional, organism-based
Mus musculus [14] = test: Antialzheimer activity in APPSWE/PSEN1dE9 double-transgenic mouse model of Alzheimer's disease assessed as decrease in impairment of motor coordination at 10 mg/kg, ip administered daily for 5 days per week for 4 weeks by rotarod test; assay type: functional, organism-based
[15] = Cytotoxicity against rat CSM14.1 cells assessed as cell viability after 20 hrs by ATPlite assay relative to control; assay type: cell-based; details: read-out: Activity
[16] = Clearance in mouse at 2 mg/kg, po; assay type: ADME, organism-based; details: in vivo

- half-life [1]: 2 min
- half-life [2]: > 300 min
- half-life [4]: 45 min
- half-life [5]: 2 min
- bioavailability [6]: 37%
- half-life [7]: 15 min
- half-life [8]: 140 min
- Kp at 1 h [10]: 3
- inhibition (INH) [11]: Not Active
- CL/F [16]: 251 mL/min/kg
SMILES: Cc1ccc2cccc(NC(=O)c3ccc(OC(C)C)cc3)c2n1
- Activity (Mus musculus [3]): Active
- Activity (HeLa): Active
- Activity (Mus musculus [9]): Non-Toxic
- Activity (Rattus norvegicus): Dose-dependent effect
- inhibition (INH) [12]: Active
- Activity (Mus musculus [13]): Active
- Activity (Mus musculus [14]): Active
- viability at 20 h [15]: 100%
